These are literature values, as cited in US20110088590A1, “METHOD FOR TREATING WOOD” (priority 2005, published 2011).

In this data set the test system is honey bees and other beneficial insects, fish, aquatic insects, crayfish, and shrimp. Conditions: for many species.

Turning to `CC1(C)C(C=C(Cl)Cl)C1C(=O)OCc1cccc(Oc2ccccc2)c1` (stereo not shown) [Permethrin], the lethal concentration result is “less than one”.
